According to patent US4221794A, “Method of imparting immunomodulating and antiviral activity” (Newport Pharmaceuticals International, Inc., priority 1979, dated 1980):
“And” between values parts separate entries of the source, which are not always exact repeats. Equal values may be shown once. Where a name gives a salt, the structure may show the parent alone. Read-outs that look alike come from different tables or passages of the source.

Key:
mouse lymphocytes = assay: Mitogen (Con A) induced mouse lymphocyte (spleen cell) proliferation; format: cell-based; conditions: for Maximum Percent Change, Mitogen Induced (Con A) Mouse Lymph. Prolif.: plus = immunostimulating, minus = immunoinhibiting, 0 = neither
Source text: (§1) The following three assay procedures are used to evaluate the ability of the test substances to modulate the activity of several classes of cells in the immune system. In these systems it is possible to identify both immunopotentiating activity (evidence by an enhancement of the parameter examined) as well as immunosuppressant activity (evidenced by an inhibition of the parameter examined).
1. Mitogen-Induced Mouse Spleen Cell Assay
Mouse spleen cells contain a population of both B and T lymphocytes which can be stimulated by a number of foreign substances (e.g., plant mitogens such as Con A) to proliferate. This enhanced proliferation is an indication of enhanced cell mediated immunity. The method below describes the system used to evaluate test substances as immunopotentiators.
Concanavalin A (Calbiochem, La Jolla, California), Lot #210073, lyophilized in NaCl, was prepared first as a 1% solution and diluted as a 2×concentration for each dilution (0.5, 1.0, 2.5 μg/ml).
Six to eight week old male Balb/c and C3 H inbred mice were obtained from the following sources: Flow Research Animals, Inc., Dublin, Virginia; Charles River Breeding Laboratories, Wilmington, Massachusetts; Laboratory Supply Company, Indianapolis, Indiana; and Lionel Strong Foundation, San Diego, California.
Three to five mice were sacrificed by cervical dislocation and the spleens aseptically removed. Pooled spleens were minced and teased with sterile forceps; then strained through a double layer of nylon mesh. The cell suspension was washed once with 15 ml of RPMI 1640 supplemented with 5% fetal calf serum and antibiotics. Cells were cultured at a concentration of 10^6 cells/0.1 ml/well in micro-plates. Cultures were incubated in the presence or absence of mitogen in a humidified atmosphere containing 5% CO2 for 48 hours. The test compound was added to cultures at various concentrations concommitant with mitogen.
Proliferation was assayed by the degree of incorporation of 1.0 μCi of [^3 H] thymidine over an 18 hour incubation period. Cultures were harvested by a MASH unit (Otto Hiller Co., Madison, Wisconsin) and thymidine incorporation was assayed by liquid scintillation spectrometry. Cultures were performed in triplicate and data are expressed as means plus or minus the standard error of the experimental means. Drug stimulation indices over control values were also calculated and portrayed graphically.
(§2) Table 4 above presents the results of an evaluation of a number of these subject compounds as potentiators of the immune response. Three different test systems were used. The first involves a measure of the ability of the test compound to enhance the ability of mouse lymphocytes to proliferate in response to a plant mitogen (Con A). The second involves measuring the ability of the test compounds to enhance human lymphocyte proliferation in response to a second plant mitogen (PHA). The third system measures the ability of these test substances to enhance macrophage proliferation in response to a natural lymphokine (MMF, Macrophage Mitogenic Factor).

[1] = system: human peripheral blood lymphocytes; assay: Mitogen (PHA) induced human lymphocyte proliferation; format: cell-based; conditions: plus = immunostimulating, minus = immunoinhibiting, 0 = neither
[2] = system: (Russian) influenza virus; assay: Inhibition of influenza virus replication, Russian; format: cell-based
influenza virus [3] = assay: microbe, parasite or virus in culture; format: cell-based, influenza virus Type A/USSR 90 (HeLa cell cultures); conditions: for inhibition at 10 µg/mL / inhibition at 100 µg/mL: unidentified influenza virus; for inhibition at 10 µg/mL: read-out: % Inhibition of Hemadsorption Foci, Test Compound Conc. <10 μg/ml; for inhibition at 100 µg/mL: read-out: % Inhibition of Hemadsorption Foci, Test Compound Conc. >100 μg/ml
influenza virus [4] = assay: Anti-influenza activity (overall); format: cell-based, several strains of A and B sub-types; conditions: for anti-influenza activity (in words): compound by itself; for inhibit the replication of different strains of influenza virus (number of strains): concentrations ranging from 1-150 μg/ml
guinea pig macrophages = assay: Lymphokine (MMF) induced guinea pig macrophage proliferation; format: cell-based; conditions: plus = immunostimulating, minus = immunoinhibiting, 0 = neither
Method: 3. The macrophage represents a subpopulation of white blood cells which is an important component of the immune system in control of both cellular and humoral immunity. The assay system described below evaluates the substances studied as potentiators of macrophage function.
Phytohemagglutinin (PHA) (HA-17) was purchased from Burroughs Wellcome. A preparation containing Macrophage Mitogen Factor (MMF) and Macrophage Activating Factor (MAF) was prepared from antigen-stimulated immune lymph node lymphocytes (guinea pig) as previously described by Hadden et al, Nature 257, 483-485 (1975). […] The active fraction was employed in both the proliferation and activation assays.
Ficoll-hypaque purified human peripheral blood lymphocytes were prepared and PHA-induced lymphocyte proliferation was assayed by the incorporation of tritiated thymidine as described in Hadden et al., Cell. Immunol. 20, 98-103 (1975). Each compound was analyzed in the presence of suboptimal, optimal and supraoptimal concentrations of PHA (0.001, 0.01, 0.1 units/ml respectively). Paraffin oil-induced guinea pig peritoneal macrophages were prepared and incubated as monolayer culture (>98% pure macrophages). Lymphokine (MMF)-induced proliferation was assayed by the incorporation of tritiated thymidine at 3 and 5 days of culture as described, Hadden et al, Nature 257, 483-485 (1975). Lymphokine (MAF)-induced macrophage activation to kill Listeria monocytogenes following 5 days of culture in the presence or absence of MAF was performed during a 6 hour period as described in Hadden and England, Immunopharmacology, pages 87-100 (Plenum Press, 1977). Phagocytosis was quantitated during a 20-minute exposure to Listeria monocytogenes by counting the number of macrophages containing bacteria and the number of bacteria per phagocytic cell on gram stained monolayers in Labtek chambers. Intracellular killing of bacteria was evaluated by counting the number of cells containing bacteria and the number of bacteria/cell 6 hours after the initial 20 minute exposure. Parallel experiments in which macrophages were lysed and intracellular bacteria were cultured confirm the validity of bacterial activity determined by this manner in this system. The drugs were employed in each of the three systems over serial log concentration range in triplicate in the presence and absence of mitogen or lymphokine. Each type of experiment was performed at least three times. Previous experiments indicate a parallelism of response to pharmacologic modulation in the proliferation and achivation assays.
as §2

[5] = system: Influenza A Swine 1976 (Hlsw -N1); format: cell-based
immune response = assay: Immunomodulating activity (overall); format: cell-based
Source text: as §1, §2

L-1210 leukemic cells = assay: Anti-leukemic activity, inhibition of L-1210 growth; format: cell-based, mouse; conditions: 96 hours
Method: Anti-Leukemic Activity (Inhibition of L-1210 Growth)
Leukemic cells isolated from mice bearing the L-1210 tumor are cultured in vitro and their growth can be measured by counting the number of cells in the culture over a period of time. The incorporation of a test substance into the media will prevent the growth of the leukemic cells, an indication of an effective anti-leukemic agent.
I50 (concentration of drug inhibiting growth of L-1210) by % for the tested compounds was as follows:
To Measure Inhibition of Leukemic Cell (L-1210) Growth
Check to see that there is adequate cell growth in the stock cultures. Use cells 48-72 hours after transfers are done.
Weigh out the drugs at 50 times the desired final concentration and made serial dilutions.
Make up the final medium using 500 mls McCoy's 5A medium, 15% fetal calf serum, 5 mls penicillin-streptomycin solution, and 5 mls antibiotic-antimycotic solution and let it stand at room temperature.
Using sterile technique, add 0.1 ml of the drug dilutions to each tube.
Add an appropriate quantity of cells to the prepared medium. After mixing, remove a 0.5 ml sample, place it in a vial containing […] of saline, and count it on the Coulter Counter. Multiply the count by 40 to compensate for the 40 fold dilution (0.5 ml into […] and record the inoculum.
Add 5 mls of cell suspension to each tube. Swirl the bottle every 4 tubes to insure a more uniform distribution of cells.
Tighten the caps and place in the CO2 incubator at 36°-38° for 96 hours.
After 96 hours remove the tubes from the incubator and count the contents of each on the Coulter Counter. Multiply all counts by 40 and average the four counts for each drug dilution. If the count is less than the inoculum, record 100% inhibition. If the count is greater than the average of the eight control counts, record 0% inhibition. For all other counts use the following formula: [formula] 100%-% servival=inhibition of growth due to treatment.

[6] = 1.0-10 (unit not printed), listed as 15417
[7] = 1.0-10 (unit not printed), listed as 15418

CCCCCC[C@H]([C@H](C)O)n1cnc2c(N)ncnc21 (relative stereo) [NPT 15426, ERYTHRO-9-(2-HYDROXY-3-NONYL)-ADENINE. HCl]
% Stimulation, Mitogen Induced Murine Lymphocyte Proliferation (mouse lymphocytes; 01-1.0 μg/ml): 0%
% Stimulation, Mitogen Induced Murine Lymphocyte Proliferation (mouse lymphocytes; 1.0-10 μg/ml): 0%
Maximum Percent Change, Mitogen Induced (Con A) Mouse Lymph. Prolif. (mouse lymphocytes; 1.0-10 (unit not given)): -85%
% Stimulation, Mitogen Induced Murine Lymphocyte Proliferation (mouse lymphocytes; 10-100 μg/ml): 0%
Maximum Percent Change, Mitogen Induced (Con A) Mouse Lymph. Prolif. (mouse lymphocytes; 10-100 (unit not given)): -91%
Maximum Percent Change, Mitogen Induced (Con A) Mouse Lymph. Prolif. (mouse lymphocytes; .01-1.0 (unit not given)): -50%
Maximum Percent Change, Mitogen Induced (PHA) Human Lymph. Prolif. ([1]; 1.0-10 (unit not given)): -41%
Maximum Percent Change, Mitogen Induced (PHA) Human Lymph. Prolif. ([1]; .01-1.0 (unit not given)): 6%
% Inhibition ([2]; 0.1-1.0 μg/ml): 20-30%
% Inhibition ([2]; 1.0-10 μg/ml): 30-50%
% Inhibition ([2]; 10-100 μg/ml): 50-70%
% Inhibition ([2]; >100 μg/ml): 50-70%
inhibition at 10 µg/mL (influenza virus [3]): 50%
inhibition at 100 µg/mL (influenza virus [3]): 100%
anti-influenza activity (in words) (influenza virus [4]): significant anti-influenza activity

CCCCCCC(CO)n1cnc2c(=O)[nH]cnc21 (stereo not drawn) [NPT 15417]
Maximum Percent Change, Lymphokine Induced (MMF) Guinea Pig Mac. Prolif. (guinea pig macrophages; [6]): 13%
Maximum Percent Change, Lymphokine Induced (MMF) Guinea Pig Mac. Prolif. (guinea pig macrophages; 10-100 (unit not given)): -50%
% Stimulation, Mitogen Induced Murine Lymphocyte Proliferation (mouse lymphocytes; 01-1.0 μg/ml, listed as 15417): 0%
% Stimulation, Mitogen Induced Murine Lymphocyte Proliferation (mouse lymphocytes; 1.0-10 μg/ml, listed as 15417): 0%
Maximum Percent Change, Mitogen Induced (Con A) Mouse Lymph. Prolif. (mouse lymphocytes; [6]): 0%
% Stimulation, Mitogen Induced Murine Lymphocyte Proliferation (mouse lymphocytes; 10-100 μg/ml, listed as 15417): 0%
Maximum Percent Change, Mitogen Induced (Con A) Mouse Lymph. Prolif. (mouse lymphocytes; 10-100 (unit not printed), listed as 15417): 0%
Maximum Percent Change, Mitogen Induced (Con A) Mouse Lymph. Prolif. (mouse lymphocytes; .01-1.0 (unit not printed), listed as 15417): 0%
% Stimulation, Mitogen Induced Murine Lymphocyte Proliferation (mouse lymphocytes; >100 μg/ml): 0%
% Inhibition ([5]; listed as 15417): 50-70% and > 70%
Maximum Percent Change, Mitogen Induced (PHA) Human Lymph. Prolif. ([1]; 1.0-10 (unit not given)): 0%
Maximum Percent Change, Mitogen Induced (PHA) Human Lymph. Prolif. ([1]; 10-100 (unit not given)): -50%
Maximum Percent Change, Mitogen Induced (PHA) Human Lymph. Prolif. ([1]; .01-1.0 (unit not given)): 0%
inhibition at 10 µg/mL (influenza virus [3]): 18%
inhibition at 100 µg/mL (influenza virus [3]): 60%
anti-influenza activity (in words) (influenza virus [4]): significant anti-influenza activity
inhibit the replication of different strains of influenza virus (number of strains) (influenza virus [4]): at least 4 different strains

CCCCCCC(CO)n1cnc2c(=O)[nH]cnc21 (stereo not drawn) [NPT 15418]
potentiation of the immune response (in words) (immune response): potentiation of the immune response has been observed
Potentiation of immunopotentiation by DIP.PAcBA salt (immune response; salt compared with parent compound): Yes
I50 (concentration of drug inhibiting growth of L-1210) (L-1210 leukemic cells): 70 micrograms/ml
Maximum Percent Change, Lymphokine Induced (MMF) Guinea Pig Mac. Prolif. (guinea pig macrophages; [7]): 80%
Maximum Percent Change, Lymphokine Induced (MMF) Guinea Pig Mac. Prolif. (guinea pig macrophages; .01-1.0 (unit not given)): 12%
% Stimulation, Mitogen Induced Murine Lymphocyte Proliferation (mouse lymphocytes; 01-1.0 μg/ml, listed as 15418): 20-30%
% Stimulation, Mitogen Induced Murine Lymphocyte Proliferation (mouse lymphocytes; 1.0-10 μg/ml, listed as 15418): > 50%
Maximum Percent Change, Mitogen Induced (Con A) Mouse Lymph. Prolif. (mouse lymphocytes; [7]): 73%
% Stimulation, Mitogen Induced Murine Lymphocyte Proliferation (mouse lymphocytes; 10-100 μg/ml, listed as 15418): 20-30%
Maximum Percent Change, Mitogen Induced (Con A) Mouse Lymph. Prolif. (mouse lymphocytes; 10-100 (unit not printed), listed as 15418): 26%
Maximum Percent Change, Mitogen Induced (Con A) Mouse Lymph. Prolif. (mouse lymphocytes; .01-1.0 (unit not printed), listed as 15418): 41%
% Inhibition ([5]; listed as 15418): > 70%
% Inhibition of Hemadsorption Foci (influenza virus [3]; Test Compound Conc. <10 μg/ml): 16%
% Inhibition of Hemadsorption Foci (influenza virus [3]; Test Compound Conc. >100 μg/ml): 52%
potentiation of anti-influenza activity by DIP.PAcBA salt (influenza virus [4]): does potentiate the anti-influenza activity and Yes
inhibit the replication of different strains of influenza virus (number of strains) (influenza virus [4]): at least 4 different strains
